Source: article PMC12345172, “Uptake of fucosylated type I human milk oligosaccharide blocks by Bifidobacterium longum subsp. infantis” (mBio, 2025)
Like-named read-outs stand apart in the source and are kept apart here.

How the values were obtained:
Blon_0883 (BiGFL-BP) [1] = molecular target: T1, Blon_0883 (BiGFL-BP) (Bifidobacterium longum, UniProt A0AAX1LHV4); test: surface plasmon resonance, steady state; format: binding; settings: 25 °C, pH 6.5, 10 mM sodium phosphate, 150 mM NaCl, 0.005% P20; protein amine-coupled to CM5 chip
T1 construct: gene msmE_4; mature peptide, amino acids 24-460, signal peptide removed; N-terminal TEV-cleavable His tag cut; E. coli BL21(DE3)
T1 sequence (A0AAX1LHV4 24-445): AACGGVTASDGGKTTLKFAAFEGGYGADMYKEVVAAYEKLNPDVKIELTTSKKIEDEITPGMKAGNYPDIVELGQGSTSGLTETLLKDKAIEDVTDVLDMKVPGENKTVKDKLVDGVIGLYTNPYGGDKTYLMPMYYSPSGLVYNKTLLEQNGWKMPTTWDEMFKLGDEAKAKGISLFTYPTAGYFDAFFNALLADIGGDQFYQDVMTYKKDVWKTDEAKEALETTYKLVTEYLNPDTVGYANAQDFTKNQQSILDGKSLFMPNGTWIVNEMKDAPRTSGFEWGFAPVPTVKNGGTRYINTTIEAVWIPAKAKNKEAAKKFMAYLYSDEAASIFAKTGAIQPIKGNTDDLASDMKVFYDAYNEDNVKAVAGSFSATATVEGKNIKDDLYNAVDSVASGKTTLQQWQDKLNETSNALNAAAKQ
Description: surface plasmon resonance, steady state on Blon_0883 (BiGFL-BP)

Blon_0883 (BiGFL-BP) [2] = molecular target: T1, Blon_0883 (BiGFL-BP); test: biochemical; set-up: SPR (Biacore T100), immobilized Blon_0883 on CM5 chip, 25 °C, pH 6.5; kinetic and steady-state fits; settings: SPR kinetic global fit; for kon: read-out: kon (×10^6 M^-1s^-1)
Description: (§1) Affinity of Blon_0883 to oligosaccharides was also determined using a Biacore T100 (GE Healthcare). The protein was diluted into 10 mM sodium acetate (pH 4.2) to 2.0 µM and immobilized on a CM5 sensor chip using random amine coupling kit (GE Healthcare) to a density of 3,077 response units (RU) and the sensograms were recorded at 25°C in the same buffer used for the ITC (including 150 mM NaCl and 0.005% P20 surfactant) and analyzed as described ([24]). Experiments were performed in independent duplicates in the range 3.42–2,500 nM for LNB, GNB, Lewis A triose and Blood group H antigen triose. Binding was also tested using 0.1 µM–100 mM Lac, Gal, 3FL, 3SL, DFL LNT, and di-N-acetyl-lactosamine. The mature peptide of Blon_0883 was produced and purified to electrophoretic homogeneity. The binding affinity and thermodynamics of the transport protein were analyzed using isothermal titration calorimetry (ITC) and surface plasmon resonance (SPR) (Fig. 1; Fig. S1; Table S1). Among the tested ligands, the highest affinities were measured toward LNB and GNB. The binding of both ligands was driven by favorable enthalpy, similar to other saccharide-specific SBP ([21]) (Table 1). The Lewis a (Le^a) and blood group H type 1 antigen (H1) trisaccharides were both bound with about four-fold lower affinity than the preferred LNB ligand. […] Panels A through D depict representative binding isotherms based on technical triplicates. The circles are blank and reference-corrected binding levels, and the solid lines are the fits of a one binding site model to the steady state data. Panels E and F depict the blank and reference-corrected sensograms in gray, and the green lines are the global fits of a kinetic one site binding model to the binding sensograms.

Blon_0883 (BiGFL-BP) [3] = molecular target: T1, Blon_0883 (BiGFL-BP); set-up: SPR (Biacore T100), immobilized Blon_0883 on CM5 chip, 25 °C, pH 6.5; kinetic and steady-state fits; settings: binder
Description: as §1

Blon_0883 (BiGFL-BP) [4] = molecular target: T1, Blon_0883 (BiGFL-BP); test: isothermal titration calorimetry; format: binding; settings: 25 °C, pH 6.5, 10 mM sodium phosphate; one-site model; free protein in solution
Description: isothermal titration calorimetry on Blon_0883 (BiGFL-BP)

[5] = SPR kinetic global fit, read-out: Kd Kinetics

Work on `CC(=O)N[C@H]1C(O)O[C@H](CO)[C@@H](O[C@@H]2O[C@@H](C)[C@@H](O)[C@@H](O)[C@@H]2O)[C@@H]1O[C@@H]1O[C@H](CO)[C@H](O)[C@H](O)[C@H]1O` (stereo partly drawn) [Le^a] yielded a Kd (Blon_0883 (BiGFL-BP) [1]) of 146 ± 12 nM, a koff (Blon_0883 (BiGFL-BP) [2]) of 0.14 ± 0.0005 s⁻¹ and a kon (Blon_0883 (BiGFL-BP) [2]) of 3e+06 ± 10000 M⁻¹ s⁻¹. It also gave a Kd (Blon_0883 (BiGFL-BP) [3]; [5]) of 49 nM.
`CC(=O)N[C@H]1C(O)O[C@H](CO)[C@@H](O)[C@@H]1O[C@@H]1O[C@H](CO)[C@H](O)[C@H](O)[C@H]1O[C@@H]1O[C@@H](C)[C@@H](O)[C@@H](O)[C@@H]1O` (stereo partly drawn) [H1] showed a Kd (Blon_0883 (BiGFL-BP) [1]) of 158 ± 9 nM, a koff (Blon_0883 (BiGFL-BP) [2]) of 0.17 ± 0.002 s⁻¹ and a kon (Blon_0883 (BiGFL-BP) [2]) of 4.8e+06 ± 60000 M⁻¹ s⁻¹. For the same compound, the Kd (Blon_0883 (BiGFL-BP) [3]; [5]) was 37 nM.
Work on `CC(=O)N[C@H]1C(O)O[C@H](CO)[C@@H](O)[C@@H]1O[C@@H]1O[C@H](CO)[C@H](O)[C@H](O)[C@H]1O` (stereo partly drawn) [LNB, Galβ1,3GlcNAc] yielded a Kd (Blon_0883 (BiGFL-BP) [4]) of 68.5 nM, a koff (Blon_0883 (BiGFL-BP) [2]) of 0.16 ± 0.003 s⁻¹ and a kon (Blon_0883 (BiGFL-BP) [2]) of 1.46e+07 ± 30000 M⁻¹ s⁻¹. The Kd (Blon_0883 (BiGFL-BP) [3]; [5]) was 11 nM and the Kd (Blon_0883 (BiGFL-BP) [3]; SPR steady-state fit) was 32.5 ± 3.2 nM.
`CC(=O)N[C@H]1C(O)O[C@H](CO)[C@H](O)[C@@H]1O[C@@H]1O[C@H](CO)[C@H](O)[C@H](O)[C@H]1O` (stereo partly drawn) [GNB, Galβ1,3GalNAc] showed a Kd (Blon_0883 (BiGFL-BP) [4]) of 169 nM, a koff (Blon_0883 (BiGFL-BP) [2]) of 0.04 ± 0.003 s⁻¹ and a kon (Blon_0883 (BiGFL-BP) [2]) of 850000 ± 4000 M⁻¹ s⁻¹. It also gave a Kd (Blon_0883 (BiGFL-BP) [3]; [5]) of 42 nM and a Kd (Blon_0883 (BiGFL-BP) [3]; SPR steady-state fit) of 62 ± 4 nM.
